Test system: Plasmodium falciparum (3D7)
Experiment: Anti-malarial screen, parasite growth by SybrGreen staining
Assay type: cell-based
Conditions: dose response assay, test molecules from 10 μM to 1 nM, 60 hours incubation, SybrGreen read out
Method: Plasmodium falciparum (3D7; Malaria Research and Reference Reagent Resource Center ID NO: MRA-102) is cultured in the laboratory as per standard protocols. Briefly, P. falciparum is cultured using 2% hematocrit washed RBCs, separated from freshly collected human blood, in Roswell Park Memorial Institute (RPMI) medium containing glutamine, sodium bicarbonate and antibiotics. Parasites are synchronized using either 5% sorbitol treatment or by enriching late stage parasites using a 70% percol cushion. 200 μls of the diluted parasite culture at 2% parasitemia and 2% hematocrit, is added to each well in a 96 well plate pre-seeded with the compound of interest at the required concentration. In general, compounds being screened for the first time are tested at a single concentration of 10 μM to detect any effect they may have on parasite growth. The master stocks and dilutions of the compounds are prepared in cell culture grade DMSO. NOTE: DMSO only treatment control is done and the results are used for normalizing the data obtained from compound treatment. All compounds are plated in triplicates. Each 96 well plate also includes negative control (compound untreated culture) and positive control (standard anti-malarial treated culture). Standard anti-malarials used are chloroquine, artemisinine and atovaquone, each at 1 μM concentration. After plating, the culture is incubated in standard growth condition for 60 hours, after which the cultures are processed for testing the effect of compounds on parasite growth as given below. We have standardized a modified SybrGreen dye based staining protocol (Plouffe D et. al. in Proc Natl Acad Sci, 2008, 105(26), 9059-64) for estimating parasite growth. SybrGreen dye binds to DNA and only the DNA bound dye gives a specific fluorescence emission ([…]) when excited ([…]). Since only the parasites have DNA (as RBCs are devoid of nucleus), the SybrGreen signal is a direct indictor of parasite growth. We have standardized a plate reader based read out assay for quantifying relative parasite growth (or conversely % inhibition of growth) in untreated, standard anti-malarial treated and test molecules treated P. falciparum cultures. 25 μl of 10× staining solution (0.5% Triton X100 & 10× SybrGreen dye in phosphate buffered saline) is added to each sample in 96 well plate, mixed and incubated for 30 min before taking readings. Data obtained is then tabulated to compare parasite growth between untreated, standard anti-malarial treated and compound treated parasite cultures. Compounds showing greater than 80% reduction in parasite growth are selected from this primary screening for carrying out dose response analysis using the respective test molecules from 10 μM to 1 nM. Data from this experiment is used for the calculation of IC50 values for the respective test molecules. Data from the preliminary screen (at 10 μM only) is shown in FIG. 1 and data from the dose response experiment is shown in FIG. 2.

| Structure (SMILES) | IC50 [µM] |
| --- | --- |
| CC1=C[C@@H]2O[C@H](c3ccc(Cl)cc3)c3ccccc3N2c2ccccc21 | 3.8 |
| Cc1cc2c(cc1C)N1c3ccccc3C=C[C@@H]1O[C@@H]2c1ccc(Cl)cc1 | 3.51 |
| C1=CC2OC(c3ccccc3)(c3ccccc3)c3ccccc3N2c2ccccc21 (stereo not drawn) | 3.87 |
| O=C1C=CC2(C=C1)OC1C=Cc3ccccc3N1c1ccccc12 (stereo not drawn) | 1.69 |
| O=C(c1ccccc1)C1(c2ccccc2)OC2C=Cc3ccccc3N2c2ccccc21 (stereo not drawn) | 2.64 |
| O=C1C(O)=C([C@H]2CC[C@H](c3ccc(Cl)cc3)CC2)C(=O)c2ccccc21 [Atovaquone, reference compound] | 0.00711 |

Reference: patent publication US9206196B1, “Derivatives of benzoxazino quinoline, benzoxazino isoquinoline and processes for their preparation” (Council of Scientific & Industrial Research, priority 2014, dated 2015)
